What all share (assay type): cell-based, human
Assay [1] relates to MDA-MB-468 cells. The assay can be described thus: Cell proliferation, BrdU ELISA and Celltiter Glo (FIG. 3). As for the experimental part:
(§1) Colo205 and MDA-MB-468 cells were grown in DMEM supplemented with 25 mM HEPES, 10 mM glutamine, 4.5 g/L d-glucose, and 10% fetal bovine serum. Assays were performed in 96 well microtiter plates with optimum seeding densities for each cell line.
(§2) Cell proliferation was measured using the Celltiter Glo® Luminescent Cell Viability Assay available from Promega Corporation and the Roche BrdU Cell Proliferation ELISA assay.
(§3) Cell death was measured using the Roche Cell Death ELISA^Plus kit and Promega Apo-ONE™ Homogeneous Caspase-3/7 Assay. Total cell number was measured using the Celltiter Glo® Luminescent Cell Viability Assay and cell proliferation was measured with the Roche BrdU Cell Proliferation ELISA assay.
Background: Uptake of a labelled nucleoside into DNA is a usual measure of proliferation.

Assay [2] has as its system Colo205 cells. The assay can be described thus: Cell proliferation, BrdU ELISA and Celltiter Glo (FIG. 2). As for the experimental part:
as §1, §2, §3

The subject of assay [3] is Colo205 cells. The assay can be described thus: Apoptosis, Roche Cell Death ELISA and Caspase-3/7 (FIG. 2). To be noted: for apoptosis: agent alone, 24 h. As for the experimental part: (§4) A549 cells were grown in RPMI-1640 supplemented with 25 mM HEPES, 10 mM glutamine and 10% fetal bovine serum and maintained at 37° C. and 5% CO2 in a humid incubator. Colo205 and MDA-MB-468 cells were grown in DMEM supplemented with 25 mM HEPES, 10 mM glutamine, 4.5 g/L d-glucose, and 10% fetal bovine serum. Assays were performed in 96 well microtiter plates with optimum seeding densities for each cell line.
(§5) Apoptosis was measured using the Roche Cell Death ELISA^Plus kit (catalog 1 774 425) which detects fragmented nucleosomal DNA that is generated during apoptosis.
as §3
Background: In an ELISA, binding on a coated surface is turned into a signal by an enzyme label.

The test system of assay [4] is A549 cells. Put plainly: Apoptosis, Roche Cell Death ELISA and Caspase-3/7 (FIG. 1). Particulars: for apoptosis: agent alone, 24 h. As for the experimental part: as §4, §5, §3
For assay [5], the system named is A549 cells. The assay can be described thus: Cell proliferation, BrdU ELISA and Celltiter Glo (FIG. 1).
Assay [6] has as its system MDA-MB-468 cells. Put plainly: Apoptosis, Roche Cell Death ELISA and Caspase-3/7 (FIG. 3). Particulars: for apoptosis: agent alone, 24 h. As for the experimental part: as §4, §5, §3
Setting [7] is: 1:1 molar ratio with GW572016, 24 h.

On to `Nc1ncnc2c1c(-c1cccc(OCc3ccccc3)c1)cn2[C@H]1C[C@@H](CN2CCCC2)C1` [GSK621659A], for which the “cell proliferation, combination versus either agent alone” value in assay [1] (setting [7]), in assay [2] (setting [7]) and in assay [5] (setting [7]) was “more effective than either agent alone” in each case. In addition, the cell proliferation result in assay [1] (agent alone, 24 h) is listed as “decreased cell proliferation”; in assay [2] (agent alone, 24 h) it was “decreased cell proliferation”; in assay [5] (agent alone, 24 h) it was “decreased cell proliferation”. The “apoptosis, combination versus either agent alone” value in assay [3] (setting [7]), in assay [4] (setting [7]) and in assay [6] (setting [7]) was “more effective than either agent alone” each time. Further, the apoptosis result in assay [3], in assay [4] and in assay [6] was “increased apoptosis” each time.

For the compound `CS(=O)(=O)CCNCc1ccc(-c2ccc3ncnc(Nc4ccc(OCc5cccc(F)c5)c(Cl)c4)c3c2)o1` [GW572016, N-{3-Chloro-4-[(3-fluorobenzyl)oxy]phenyl}-6-[5-({[2-(methanesulphonyl)ethyl]amino}methyl)-2-furyl]-4-quinazolinamine ditosylate monohydrate], the apoptosis result in assay [3], in assay [4] and in assay [6] was “increased apoptosis” each time.

Values taken from patent US20090203718A1, “CANCER TREATMENT METHOD” (SmithKline Beecham (Cork) Ltd., priority 2006, published 2009).
